{"source": "patent US9174991B2", "about": "“Crystalline form of pemetrexed disodium” (Azad Pharmaceutical Ingredients AG, priority 2009, dated 2015)", "key": {"[1]": {"details": "70° C., 5 mbar", "protocol": "To investigate the stability of the different forms of Pemetrexed Disodium a stability test concerning storage at different relative humidity, storage in the presence of light and stability under drying conditions was carried out.\nFour samples were stored at 70° 5 mbar in laboratory vacuum oven. IPC were taken after 2 d, 9 d\nHPLC analysis was done on an Agilent 1100 system equipped with DAD detector using a Zorbax SB-Phenyl column (150×4.6 mm, 3 μm). Measurements were done at 230 nm wavelengths at 25° C. using a flow of 1.0 mL/min and 8 min post-run time. […] Sample preparation: 10 mg sample in 25 mL water:ACN=1:1, 5 uL injection."}, "[2]": {"details": "starting material, before storage", "protocol": "HPLC analysis was done on an Agilent 1100 system equipped with DAD detector using a Zorbax SB-Phenyl column (150×4.6 mm, 3 μm). Measurements were done at 230 nm wavelengths at 25° C. using a flow of 1.0 mL/min and 8 min post-run time. As mobile phase water containing 0.03% TFA and acetonitrile containing 0.025% TFA were used, solvents were HPLC grade. Sample preparation: 10 mg sample in 25 mL water:ACN=1:1, 5 uL injection. Retention time Pemetrexed Disodium: 10.3 min.\nPXRD: Routine PXRD measurements were carried out on a Bruker AXS D8Advance diffractometer equipped with CuKα source with CuKβ filter and a VANTEC detector (Ser. No.: 202964). Measurement parameters: 3° 2theta to 39.9° 2theta, step time: 2s, step size: 0.022°, T=25° C., X-ray generator: 35 kV/40 mA."}, "[3]": {"experiment": "not given", "remark": "listed apart in the source"}, "[4]": {"details": "daylight, text says after 16 d, listed as Pemetrexed Disodium Form A"}, "[5]": {"details": "double PE plastic bags, daylight, 20° C. to 25° C., 15 d"}, "[6]": {"details": "5% to 12% relative humidity, dark, air, 2 d, measured 11.7% (Form A 5.8%), 23° C."}, "[7]": {"details": "5% to 12% relative humidity, dark, air, 5 d, measured 9.5% (Form A 5.3%), 24° C."}, "[8]": {"details": "5% to 12% relative humidity, dark, air, 9 d, measured 9% (Form A 6%), 24° C."}, "[9]": {"details": "5% to 12% relative humidity, dark, air, 16 d, measured 8.5% (Form A 5.8%), 24° C."}, "[10]": {"details": "27% to 33% relative humidity, dark, air, 5 d, measured 29% (Form A 27%), 24° C."}, "[11]": {"details": "27% to 33% relative humidity, dark, air, 9 d, measured 31% (Form A 30%), 24° C."}, "[12]": {"details": "27% to 33% relative humidity, dark, air, 16 d, measured 30.4% (Form A 28.7%), 24° C."}, "[13]": {"details": "39% to 50% relative humidity, dark, air, 2 d, measured 41.1% (Form A 39%), 23° C."}, "[14]": {"details": "39% to 50% relative humidity, dark, air, 5 d, measured 42.8% (Form A 38.6%), 24° C."}, "[15]": {"details": "39% to 50% relative humidity, dark, air, 9 d, measured 48% (Form A 47%), 24° C."}, "[16]": {"details": "39% to 50% relative humidity, dark, air, 16 d, measured 47.3% (Form A 46.4%), 24° C."}, "[17]": {"details": "60% to 70% relative humidity, dark, air, 2 d, measured 61%, 22° C. (Form A 54%, 23° C)"}, "[18]": {"details": "60% to 70% relative humidity, dark, air, 5 d, measured 63% (Form A 57%), 24° C."}, "[19]": {"details": "60% to 70% relative humidity, dark, air, 9 d, measured 69% (Form A 68%), 24° C."}, "[20]": {"details": "60% to 70% relative humidity, dark, air, 16 d, measured 66.9% (Form A 67.2%), 24° C."}}, "note": "Structures can show the parent of a compound that is named as a salt. Where two headings read alike, the source gives them in different places."}
{"smiles": "Nc1nc(O)c2c(CCc3ccc(C(=O)N[C@@H](CCC(=O)O)C(=O)O)cc3)c[nH]c2n1", "note": "[Form A, disodium N-[4-[2-(2-amino-4,7-dihydro-4-oxo-3H-pyrrolo[2,3-d]-pyrimidin-5-yl)ethyl]benzoyl]-L-glutamic acid salt]", "values": [{"measurement": "HPLC-purity (10.5 min)", "setting": "[1]; 2 d", "result": 99.67, "unit": "%"}, {"measurement": "PXRD", "setting": "[1]; 2 d", "result": "Form A"}, {"measurement": "Aspect", "setting": "[1]; 9 d", "result": "beige"}, {"measurement": "HPLC-purity (10.5 min)", "setting": "[1]; 9 d", "result": 99.41, "unit": "%"}, {"measurement": "change in HPLC-purity upon vacuum drying (in words)", "setting": "[1]; up to 9 d, listed as Pemetrexed Disodium Form A", "result": "significant decrease"}, {"measurement": "HPLC-purity", "setting": "daylight study, Start", "result": 99.71, "unit": "%"}, {"measurement": "change in HPLC purity in the presence of light (in words)", "setting": "[4]", "result": "a lot of decomposition products"}, {"measurement": "change in color in the presence of light (in words)", "setting": "[4]", "result": "significant formation of color"}, {"measurement": "Aspect", "setting": "[5]", "result": "beige"}, {"measurement": "H2O (KFT)", "setting": "[5]", "result": 2.44, "unit": "%"}, {"measurement": "HPLC-purity", "setting": "[5]", "result": 95.83, "unit": "%"}, {"measurement": "HPLC-purity (10.5 min)", "setting": "[2]", "result": 99.59, "unit": "%"}, {"measurement": "PXRD", "setting": "[2]", "result": "Form A"}, {"measurement": "change in water content (in words)", "setting": "[3]; 5% to 12% rel. humidity (for Form A and Form IV: 7% to 12%), up to 16 d, listed as Pemetrexed Disodium Form A", "result": "does not show a significant change"}, {"measurement": "change in HPLC-purity (in words)", "setting": "[3]; 5% to 12% rel. humidity (text for Form A: 7% to 12%), up to 16 d, listed as Pemetrexed Disodium Form A", "result": "does not show a significant change"}, {"measurement": "H2O (KFT)", "setting": "[3]; [6]", "result": 3.5, "unit": "%"}, {"measurement": "HPLC-purity (10.5 min)", "setting": "[3]; [6]", "result": 99.59, "unit": "%"}, {"measurement": "PXRD", "setting": "[3]; [6]", "result": "Form A"}, {"measurement": "HPLC-purity (10.5 min)", "setting": "[3]; [7]", "result": 99.33, "unit": "%"}, {"measurement": "PXRD", "setting": "[3]; [7]", "result": "Form A"}, {"measurement": "HPLC-purity (10.5 min)", "setting": "[3]; [8]", "result": 99.58, "unit": "%"}, {"measurement": "PXRD", "setting": "[3]; [8]", "result": "Form A"}, {"measurement": "HPLC-purity", "setting": "[3]; [9]", "result": 99.50, "unit": "%"}, {"measurement": "PXRD", "setting": "[3]; [9]", "result": "Form A"}, {"measurement": "change in HPLC-purity (in words)", "setting": "[3]; 27% to 33% rel. humidity, after 16 d", "result": "without visible change"}, {"measurement": "change in water content (in words)", "setting": "[3]; 27% to 33% rel. humidity, up to 16 d, listed as Pemetrexed Disodium Form A", "result": "significant in increase"}, {"measurement": "HPLC-purity", "setting": "[3]; 27% to 33% relative humidity, dark, air, 2 d, measured 29.8% (Form A 28%), 23° C.", "result": 99.60, "unit": "%"}, {"measurement": "HPLC-purity", "setting": "[3]; [10]", "result": 99.43, "unit": "%"}, {"measurement": "PXRD", "setting": "[3]; [10]", "result": "Form A"}, {"measurement": "HPLC-purity", "setting": "[3]; [11]", "result": 99.57, "unit": "%"}, {"measurement": "PXRD", "setting": "[3]; [11]", "result": "Form A"}, {"measurement": "HPLC-purity", "setting": "[3]; [12]", "result": 99.69, "unit": "%"}, {"measurement": "PXRD", "setting": "[3]; [12]", "result": "Form A"}, {"measurement": "HPLC-purity", "setting": "[3]; [13]", "result": 99.68, "unit": "%"}, {"measurement": "PXRD", "setting": "[3]; [13]", "result": "Form A"}, {"measurement": "HPLC-purity", "setting": "[3]; [14]", "result": 99.64, "unit": "%"}, {"measurement": "PXRD", "setting": "[3]; [14]", "result": "Form A"}, {"measurement": "HPLC-purity", "setting": "[3]; [15]", "result": 99.62, "unit": "%"}, {"measurement": "PXRD", "setting": "[3]; [15]", "result": "Form A"}, {"measurement": "HPLC-purity", "setting": "[3]; [16]", "result": 99.70, "unit": "%"}, {"measurement": "PXRD", "setting": "[3]; [16]", "result": "Form A"}, {"measurement": "change in HPLC-purity (in words)", "setting": "[3]; 40% to 50% rel. humidity, after 16 d", "result": "without visible change"}, {"measurement": "change in water content (in words)", "setting": "[3]; 40% to 50% rel. humidity, up to 16 d, listed as Pemetrexed Disodium Form A", "result": "significant in increase"}, {"measurement": "uptake of water", "setting": "[3]; 60% to 70% rel. humidity", "result": 21, "unit": "%"}, {"measurement": "change in HPLC-purity (in words)", "setting": "[3]; 60% to 70% rel. humidity, after 9 d", "result": "without significant change"}, {"measurement": "HPLC-purity", "setting": "[3]; [17]", "result": 99.71, "unit": "%"}, {"measurement": "PXRD", "setting": "[3]; [17]", "result": "Form A"}, {"measurement": "HPLC-purity", "setting": "[3]; [18]", "result": 99.51, "unit": "%"}, {"measurement": "PXRD", "setting": "[3]; [18]", "result": "Form A"}, {"measurement": "HPLC-purity", "setting": "[3]; [19]", "result": 99.71, "unit": "%"}, {"measurement": "PXRD", "setting": "[3]; [19]", "result": "Heptahydrate"}, {"measurement": "PXRD", "setting": "[3]; 60% to 70% relative humidity, dark, air, 9 d, measured 69% (Form A 68%), 24° C., listed as Pemetrexed Disodium Form A", "result": "complete transformation to Pemetrexed Disodium Heptahydrate"}, {"measurement": "HPLC-purity", "setting": "[3]; [20]", "result": 99.72, "unit": "%"}, {"measurement": "PXRD", "setting": "[3]; [20]", "result": "Heptahydrate"}]}
